Measured values from patent US4550179A, “N-(1-Allyl-2-pyrrolidinyl-methyl) 2-methoxy-4-amino-5-methylsulfamoyl benzamide” (Societe d'Etudes Scientifiques et Industrielles de l'Ile-de …, priority 1980, dated 1985).

How the values were obtained:
[1] = test system: carotid arteries; assay: hypertensive response to blocking of carotid arteries, anaesthetised dog; type: in vivo; settings: for % reduction relative to control hypertension (R): blocking of carotid arteries for 30 seconds
Excerpt: The effects of the benzamide on the cardiovascular system were studied in a dog anaesthetised with chloralose, with the following results: […]

[2] = test system: mice; assay: duration of barbituric (pentobarbital) hypnosis; type: in vivo, mouse
Procedure: Adminis- Dose Time of hypnosis, mice treated
Product tration mg/kg Time of hypnosis, control mice
N.B. The barbiturate used is pentobarbital in a dose of 60 mg/kg given

[3] = acute toxicity (lethal dose 50); settings: in vivo, male mouse

C=CCN1CCCC1CNC(=O)c1cc(S(=O)(=O)NC)c(N)cc1OC (centres unmarked) [Benzamide according to the invention, N-(1-allyl-2-pyrrolidinyl-methyl)2-methoxy-4-amino-5-methylsulfamoyl benzamide]
hypertensive responses caused by blocking the carotid arteries ([1]; anaesthetised dog): reduces the hypertensive responses | % reduction relative to control hypertension (R) ([1]; cumulative dose 0.5 mg/kg I.V.): 0% | % reduction relative to control hypertension (R) ([1]; cumulative dose 1 mg/kg I.V.): 30% | % reduction relative to control hypertension (R) ([1]; cumulative dose 2 mg/kg I.V.): 43% | % reduction relative to control hypertension (R) ([1]; cumulative dose 4 mg/kg I.V.): 48% | % reduction relative to control hypertension (R) ([1]; cumulative dose 8 mg/kg I.V.): 86% | % reduction relative to control hypertension (R) ([1]; cumulative dose 16 mg/kg I.V.): 90% | % reduction relative to control hypertension (R) ([1]; cumulative dose 32 mg/kg I.V.): 100% | Time of hypnosis, mice treated / Time of hypnosis, control mice ([2]; I.P., 80 mg/kg, pentobarbital 60 mg/kg intraperitoneally): 1.6 | extension of the duration of barbituric hypnosis ([2]; mouse, in vivo): does not extend the duration of barbituric hypnosis | LD50 ([3]; ip, intraperitoneal (basis)): 184 mg/kg | LD50 ([3]; po, per os (basis)): 3600 mg/kg | LD50 ([3]; sc, subcutaneous (basis)): 204 mg/kg | LD50 ([3]; intravenous (basis)): 44 mg/kg
